The source of these data is patent publication US11331299B2, “Medicinal use of serrulatane diterpenes” (The University of Sydney, priority 2016, dated 2022).

One assay deals with T1, FBXL10 (h) (Homo sapiens, UniProt Q8NHM5).
T1 sequence (Q8NHM5 1-1336): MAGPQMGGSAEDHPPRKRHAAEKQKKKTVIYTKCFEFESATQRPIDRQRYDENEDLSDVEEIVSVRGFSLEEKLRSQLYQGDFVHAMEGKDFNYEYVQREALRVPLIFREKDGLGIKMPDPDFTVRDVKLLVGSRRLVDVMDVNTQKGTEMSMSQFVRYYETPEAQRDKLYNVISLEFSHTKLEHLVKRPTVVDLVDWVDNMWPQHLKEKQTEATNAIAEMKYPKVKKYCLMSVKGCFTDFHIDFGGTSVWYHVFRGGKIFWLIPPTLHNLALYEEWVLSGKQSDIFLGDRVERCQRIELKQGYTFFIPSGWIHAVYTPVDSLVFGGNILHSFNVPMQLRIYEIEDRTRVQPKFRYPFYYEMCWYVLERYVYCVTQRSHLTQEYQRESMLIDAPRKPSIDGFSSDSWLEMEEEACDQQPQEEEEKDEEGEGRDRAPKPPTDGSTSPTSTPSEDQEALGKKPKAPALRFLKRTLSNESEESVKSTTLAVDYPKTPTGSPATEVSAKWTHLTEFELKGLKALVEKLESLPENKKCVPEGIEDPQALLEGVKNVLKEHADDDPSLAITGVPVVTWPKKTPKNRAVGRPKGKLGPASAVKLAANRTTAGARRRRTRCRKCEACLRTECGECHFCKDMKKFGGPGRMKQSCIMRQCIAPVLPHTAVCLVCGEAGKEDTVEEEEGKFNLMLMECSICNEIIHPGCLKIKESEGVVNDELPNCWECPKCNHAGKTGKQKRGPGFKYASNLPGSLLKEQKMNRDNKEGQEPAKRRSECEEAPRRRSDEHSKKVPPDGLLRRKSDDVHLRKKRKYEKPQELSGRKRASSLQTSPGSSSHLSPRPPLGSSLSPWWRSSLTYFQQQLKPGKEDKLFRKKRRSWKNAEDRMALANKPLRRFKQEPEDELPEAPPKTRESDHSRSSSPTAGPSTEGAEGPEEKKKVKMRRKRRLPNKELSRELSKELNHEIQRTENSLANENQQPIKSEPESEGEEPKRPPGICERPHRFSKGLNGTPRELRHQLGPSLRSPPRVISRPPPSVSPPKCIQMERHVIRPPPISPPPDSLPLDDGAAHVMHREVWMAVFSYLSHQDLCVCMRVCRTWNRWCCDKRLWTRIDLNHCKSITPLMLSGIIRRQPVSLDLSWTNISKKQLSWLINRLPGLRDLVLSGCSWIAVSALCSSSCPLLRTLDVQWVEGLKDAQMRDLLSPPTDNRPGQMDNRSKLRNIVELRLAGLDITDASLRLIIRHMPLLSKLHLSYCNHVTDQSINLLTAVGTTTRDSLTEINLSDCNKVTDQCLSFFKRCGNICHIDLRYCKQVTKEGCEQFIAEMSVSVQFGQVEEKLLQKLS
The experiment in a line: Epigenetic enzyme assay, Demethylases (KDMs). The format is biochemical. The conditions noted are these: 10 μM; read-out: % Inhibition of Control Values.

Another assay addresses T2, NSD3/WHSC1L1 (h) (Homo sapiens, UniProt Q9BZ95).
T2 sequence (Q9BZ95 1-1437): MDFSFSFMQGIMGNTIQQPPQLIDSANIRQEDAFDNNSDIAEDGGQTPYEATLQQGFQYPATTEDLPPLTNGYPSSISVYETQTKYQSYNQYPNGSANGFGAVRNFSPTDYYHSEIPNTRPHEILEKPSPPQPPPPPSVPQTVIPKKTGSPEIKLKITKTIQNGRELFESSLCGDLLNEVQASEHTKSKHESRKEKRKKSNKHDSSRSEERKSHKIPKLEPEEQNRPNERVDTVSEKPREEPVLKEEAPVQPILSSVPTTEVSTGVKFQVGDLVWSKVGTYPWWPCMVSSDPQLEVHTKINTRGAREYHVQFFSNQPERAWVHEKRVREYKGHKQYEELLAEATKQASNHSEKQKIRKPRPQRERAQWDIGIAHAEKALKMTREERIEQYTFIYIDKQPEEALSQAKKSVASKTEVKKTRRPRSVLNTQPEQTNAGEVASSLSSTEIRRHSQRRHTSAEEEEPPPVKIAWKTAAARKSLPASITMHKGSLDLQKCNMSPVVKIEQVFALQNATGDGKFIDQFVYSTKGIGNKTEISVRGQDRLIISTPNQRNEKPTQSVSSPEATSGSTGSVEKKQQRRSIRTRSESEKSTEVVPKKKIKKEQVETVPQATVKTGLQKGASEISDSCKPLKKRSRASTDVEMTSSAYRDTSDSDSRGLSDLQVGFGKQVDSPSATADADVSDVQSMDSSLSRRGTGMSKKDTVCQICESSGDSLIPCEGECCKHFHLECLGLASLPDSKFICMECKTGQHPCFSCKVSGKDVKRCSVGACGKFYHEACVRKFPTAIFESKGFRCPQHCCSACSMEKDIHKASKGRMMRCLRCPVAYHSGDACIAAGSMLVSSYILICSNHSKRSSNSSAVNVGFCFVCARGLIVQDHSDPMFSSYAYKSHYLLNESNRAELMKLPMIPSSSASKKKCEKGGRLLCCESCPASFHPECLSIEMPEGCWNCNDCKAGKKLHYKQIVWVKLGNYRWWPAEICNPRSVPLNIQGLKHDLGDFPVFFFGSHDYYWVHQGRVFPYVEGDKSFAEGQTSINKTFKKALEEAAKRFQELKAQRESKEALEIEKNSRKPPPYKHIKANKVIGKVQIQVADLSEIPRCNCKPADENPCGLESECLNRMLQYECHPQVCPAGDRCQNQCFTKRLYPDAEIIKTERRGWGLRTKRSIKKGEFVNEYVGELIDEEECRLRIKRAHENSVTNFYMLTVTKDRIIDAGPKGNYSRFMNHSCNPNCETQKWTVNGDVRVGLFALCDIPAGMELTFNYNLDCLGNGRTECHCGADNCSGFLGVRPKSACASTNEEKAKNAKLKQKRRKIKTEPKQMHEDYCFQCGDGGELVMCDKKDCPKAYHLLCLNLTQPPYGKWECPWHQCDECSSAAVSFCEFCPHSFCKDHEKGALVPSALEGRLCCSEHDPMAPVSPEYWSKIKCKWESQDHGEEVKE
The assay can be described thus: Epigenetic enzyme assay, Methyltransferases (MTs). Format: biochemical. The conditions noted are these: 10 μM; read-out: % Inhibition of Control Values.

For assay [1], the target named is T3, Epidermal Growth Factor (EGF) (Homo sapiens, UniProt P00533).
T3 construct: Human A431 cells; endogenous in cells; host or cells: A431 cells
The assay can be described thus: Epidermal Growth Factor (EGF) radio ligand binding. The following applies: assay year 2015, read-out: % Control Response. As for the experimental part: The in vitro pharmacological studies were conducted by Eurofins PanLab (Taiwan) using the parameters shown in Table 13 with respect to appropriate literature references.

T3 sequence (P00533 25-1210): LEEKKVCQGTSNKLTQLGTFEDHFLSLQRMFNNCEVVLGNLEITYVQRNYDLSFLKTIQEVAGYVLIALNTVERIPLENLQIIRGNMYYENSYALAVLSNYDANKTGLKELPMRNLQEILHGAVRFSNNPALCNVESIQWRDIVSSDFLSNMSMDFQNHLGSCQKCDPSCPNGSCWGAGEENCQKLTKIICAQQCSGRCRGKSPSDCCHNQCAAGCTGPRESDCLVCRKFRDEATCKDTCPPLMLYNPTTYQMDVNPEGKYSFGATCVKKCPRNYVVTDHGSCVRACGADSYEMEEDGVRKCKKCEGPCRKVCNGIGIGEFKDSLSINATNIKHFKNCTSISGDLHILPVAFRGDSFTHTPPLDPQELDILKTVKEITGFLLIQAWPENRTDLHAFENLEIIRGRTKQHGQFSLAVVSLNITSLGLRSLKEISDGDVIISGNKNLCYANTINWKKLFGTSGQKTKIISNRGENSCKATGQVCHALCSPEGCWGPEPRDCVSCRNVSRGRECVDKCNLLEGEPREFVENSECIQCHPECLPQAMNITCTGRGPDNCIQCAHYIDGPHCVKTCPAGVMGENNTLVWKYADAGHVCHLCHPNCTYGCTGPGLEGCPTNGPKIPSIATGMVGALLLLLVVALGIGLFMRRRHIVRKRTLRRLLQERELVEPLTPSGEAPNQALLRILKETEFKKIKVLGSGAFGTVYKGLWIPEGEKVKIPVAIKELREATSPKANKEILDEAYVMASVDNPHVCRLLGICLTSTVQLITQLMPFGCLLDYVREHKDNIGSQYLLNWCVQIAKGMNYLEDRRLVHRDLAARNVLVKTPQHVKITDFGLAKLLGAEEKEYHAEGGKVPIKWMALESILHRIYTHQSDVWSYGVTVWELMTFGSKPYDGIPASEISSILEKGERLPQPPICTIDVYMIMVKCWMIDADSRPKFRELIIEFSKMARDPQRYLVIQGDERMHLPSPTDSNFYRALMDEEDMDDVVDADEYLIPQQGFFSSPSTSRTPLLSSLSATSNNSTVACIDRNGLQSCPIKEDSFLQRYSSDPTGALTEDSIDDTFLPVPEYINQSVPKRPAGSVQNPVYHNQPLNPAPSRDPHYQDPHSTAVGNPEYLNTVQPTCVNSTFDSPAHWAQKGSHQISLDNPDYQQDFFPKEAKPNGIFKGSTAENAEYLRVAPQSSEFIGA

As for `CC(C)=CCC[C@H](CO)[C@@H]1CC[C@@H](C)c2c1cc(C)c(O)c2O` [Compound 1, 7,8,18-trihydroxyserrulat-14-ene], the inhibition (in general, the drop in the measured response relative to a control, in per cent) at 10 µM was 37% at FBXL10 (h) and -17% at NSD3/WHSC1L1 (h). The remaining activity at 10 µM in assay [1] is -8%.

Take `CC(C)=CCC[C@@H]1COc2c(C)cc(O)c3c2[C@H]1CC[C@H]3C` [Compound 3, 5,18-epoxy-8-hydroxyserrulat-14-ene]: the figures for the inhibition at 10 µM at FBXL10 (h) and on NSD3/WHSC1L1 (h) were 22% and -35%, respectively. Besides, the remaining activity at 10 µM in assay [1] was determined as 4%.

For `CC(C)=CCC[C@@H]1C(O)Oc2c(C)cc(O)c3c2[C@H]1CC[C@H]3C` (stereo partly drawn) [Compound 2, 5,18-epoxyserrulat-14-en-8,18-diol], the inhibition at 10 µM on FBXL10 (h) stood at 7%; on NSD3/WHSC1L1 (h), 11%. The remaining activity at 10 µM in assay [1] was -9%.
